“Also recorded” adds a separate entry of the source.
Legend:
BSS1-GFP = test: Non-reducing immunoblot analysis of BSS1-GFP oligomer; assay type: in vivo, Arabidopsis thaliana; details: non-reducing conditions (without DTT); after BL treatment
Protocol: Oligomeric BSS1-GFP and monomeric BSS1-GFP are shown by arrowhead O and arrowhead M, respectively. […] Total lysates were prepared from the transgenic plants and ultracentrifuged to separate the insoluble (precipitation) and soluble (supernatant) fractions. The insoluble fractions were then treated with the indicated surfactants and subjected to further ultracentrifugation. The resulting supernatants and pellets were analyzed by immunoblotting. As a control, the indicated surfactant-treated BIL2-GFP (protein localized to the mitochondria) samples were centrifuged as above.
[…] The proteins were separated by SDS-PAGE (10% acrylamide gel). After electrophoresis, the proteins were electrophoretically transferred to a Hybond ECL nitrocellulose membrane (Amersham). […]

[1] = system: nEYFP-BSS1 and BIL1-cEYFP; test: BiFC analysis of the BSS1-BIL1 interaction in protoplast cells; assay type: cell-based, Arabidopsis; details: protoplasts
Protocol: BIL1 was fused with the binding-domain (BD) and BSS1 was fused with the prey domain (AD). Empty vector (E) was used as a control. The results are presented as the mean±s.d. from 3 independent experiments. […] FLAG-BIL1 was immunoprecipitated using an anti-FLAG antibody and immunoblotted using anti-GFP and anti-FLAG antibodies. […] The protoplast medium contained DMSO, 100 nM BL, or 3 μM Brz and cells were cultured for 12 hours. The bottom panels show protoplasts cotransfected with nYFP-BSS1 and BSS1-cEYFP (YFP: YFP fluorescence; BF: bright field; Merge: merged image of YFP and BF; arrow: nucleus; scale bar: 5 μm). […]
To analyze the direct interaction between BSS1 and BIL1 in the plant cell and to identify the localization of the possible interaction between the two proteins, a bi-molecular fluorescence complementation (BiFC) analysis was performed. […] The YFP fluorescence signal caused by the binding of nYFP-BSS1 and BIL1-cYFP was only observed in the cytosol and not in the nucleus of the Arabidopsis protoplasts (FIG. 7E). […]

BIL1-GFP = test: Fluorescence microscopy of BIL1-GFP localization in root cells; assay type: in vivo, Arabidopsis thaliana; details: for punctate BIL1-GFP signals: root cells
Protocol: The results are presented as the mean±s.d. (n=61, *P<0.01, Student's t-test). […] The results are presented as the mean±s.d. (n=27, *P<0.01, Student's t-test).
The plants that were transformed with the CaMV35S-BSS1-GFP construct BSS1(-GFP)-OX and the CaMV35S-BIL1-GFP construct BIL1-GFP-OX were observed via confocal laser scanning microscopy with a BX60 fluorescence microscope (Olympus) equipped with a Model CSU10 confocal scanner (Yokogawa Electric) and LSM700 (Zeiss).
The images were analyzed using ImageJ software. To measure the ratio of the nuclear and cytosolic signals of BIL1-GFP for each cell, the signal intensities in the nucleus and cytosol were calculated from the mean of the intensity in each area. The nuclear to cytosolic signal ratio was then calculated for each cell. The average nuclear/cytosolic signal ratio and standard error were calculated from measurements of at least 54 cells from each line (FIG. 9B). Line scan measurements from the vacuole to the nucleus through the cytosol were performed, and representative plot profiles of sample measurements are presented in FIG. 5C.

BSS1 pro:GUS = test: GUS staining of BSS1 pro:GUS transgenic seedlings; assay type: in vivo, Arabidopsis thaliana; details: 3-day-old seedlings on medium with 3 μM Brz, dark or light
Protocol: The data represent the mean±s.d. from 4 independent experiments. […] The samples were grown in the same conditions as FIG. 4A for 3 days (scale bar: 5 mm). FIGS. 4C to 4E show the results of determining the BSS1 expression level by qRT-PCR. Wild-type (WT) seedlings grown on medium with different concentrations of Brz (FIG. 4C) and BL (FIG. 4D) in the light for 7 days and dark-grown seedlings exposed to light for 0-7 days (Figure E) were used for analysis of the BSS1 expression level. The data represent the mean±s.d. of 4 independent experiments. The seedlings of the BSS1 promoter: GUS transgenic plants were used for the histochemical detection of GUS expression. The samples were stained at 37° C. overnight in GUS staining solution as previously described (Ito and Fukuda, 2002, ZEN1 is a key enzyme in the degradation of nuclear DNA during programmed cell death of tracheary elements. Plant Cell 14: 3201-3211). To test the induction of GUS expression, 3-day-old transgenic seedlings were grown on medium with 3 μM Brz or dimethyl sulfoxide (DMSO) as a control.

SMILES | amount of the oligomeric form of BSS1-GFP (BSS1-GFP) | localization of YFP signal (nYFP-BSS1 / BIL1-cYFP) ([1]; 100 nM BL for 12 hours) | enhanced nuclear BIL1-GFP signal (BIL1-GFP; bop1-3 bop2-1 background, root cells of 4-day-old seedlings, 3 μM Brz) | punctate BIL1-GFP signals (BIL1-GFP; bop1-3 bop2-1 plants, treated with 3 μM Brz) | nuclear-to-cytosolic ratio of the BIL1-GFP signal (BIL1-GFP; wild-type background, root cells of 4-day-old seedlings, 3 μM Brz) | punctate BIL1-GFP signals (BIL1-GFP; wild-type background, after 3 μM Brz treatment) | BSS1 pro:GUS reporter expression (BSS1 pro:GUS) | punctate YFP signal (nYFP-BSS1 / BIL1-cYFP) ([1]; 3 μM Brz for 12 hours)
CC(C)[C@H](C)[C@@H](O)[C@H](O)[C@@H](C)[C@H]1CC[C@H]2[C@@H]3COC(=O)[C@H]4C[C@H](O)[C@H](O)C[C@]4(C)[C@H]3CC[C@]12C [BL, brassinolide] | significantly decreased | diffuse and spread throughout the cytosol and the nucleus | – | – | – | – | – | –
CC(O)(c1ccccc1)C(Cc1ccc(Cl)cc1)n1cncn1 (centres unmarked) [Brz, brassinazole] | – | – | strongly maintained | not detected | decreased | many punctate BIL1-GFP signals in the cytosol; also recorded: observed | caused BSS1 expression in the hypocotyls in the dark and in the cotyledons under light and dark conditions | increased

From patent US10323254B2, “Method for regulating plant growth” (RIKEN, priority 2015, dated 2019)
